Data from publication PMC6364417, “Kinase inhibitor library screening identifies synergistic drug combinations effective in sensitive and resistant melanoma cells” (Journal of Experimental & Clinical Cancer Research : CR, 2019).

Columns and labels:
Assay in all cases: Kinase inhibitor library screening, PrestoBlue cell viability, 1 or 10 μM, 72 h
[1] = system: 501Mel-GP cells (Dabrafenib-resistant)
A375 cells (parental) = system: A375 cells (parental)
[2] = system: IGR37-GP cells (Dabrafenib-resistant)
IGR37 cells (parental) = system: IGR37 cells (parental)
[3] = system: A375-GP cells (Dabrafenib-resistant)
[4] = system: 501Mel-XP cells (Vemurafenib-resistant)
[5] = system: IGR37-XP cells (Vemurafenib-resistant)
501Mel cells (parental) = system: 501Mel cells (parental)
Outline: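 Treatment: 72 h with inhibitor. Detection: PrestoBlue, plate reader. Output: viability as % untreated control. Replicates: duplicate minimum. Lines: parental plus Vemurafenib- or Dabrafenib-resistant derivatives.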

[6] = system: A375-XP cells (Vemurafenib-resistant)

Structure (SMILES): Cn1cc(C2=C(c3ccc(Cl)cc3Cl)C(=O)NC2=O)c2ccccc21 [SB 216763]
- viability at 1 µM ([1]; Homo sapiens, 72 h, read-out: cell viability, 501Mel GP, 1μΜ): 106%
- viability at 10 µM ([1]; Homo sapiens, 72 h, read-out: cell viability, 501Mel GP, 10μΜ): 74.1%
- viability at 1 µM (A375 cells (parental); Homo sapiens, A-375, 72 h, read-out: cell viability, A375 Parental, 1μΜ): 111%
- viability at 10 µM (A375 cells (parental); Homo sapiens, A-375, 72 h, read-out: cell viability, A375 Parental, 10μΜ): 68.1%
- viability at 1 µM ([2]; Homo sapiens, IGR-37, 72 h, read-out: cell viability, IGR37 GP, 1μΜ): 105%
- viability at 10 µM ([2]; Homo sapiens, IGR-37, 72 h, read-out: cell viability, IGR37 GP, 10μΜ): 88.4%
- viability at 1 µM (IGR37 cells (parental); Homo sapiens, IGR-37, 72 h, read-out: cell viability, IGR37 Parental, 1μΜ): 116%
- viability at 10 µM (IGR37 cells (parental); Homo sapiens, IGR-37, 72 h, read-out: cell viability, IGR37 Parental, 10μΜ): 99%
- viability at 1 µM ([3]; Homo sapiens, A-375, 72 h, read-out: cell viability, A375 GP, 1μΜ): 104%
- viability at 10 µM ([3]; Homo sapiens, A-375, 72 h, read-out: cell viability, A375 GP, 10μΜ): 67%
- viability at 1 µM ([4]; Homo sapiens, 72 h, read-out: cell viability, 501Mel XP, 1μΜ): 96.9%
- viability at 10 µM ([4]; Homo sapiens, 72 h, read-out: cell viability, 501Mel XP, 10μΜ): 73.3%
- viability at 1 µM ([5]; Homo sapiens, IGR-37, 72 h, read-out: cell viability, IGR37 XP, 1μΜ): 111%
- viability at 10 µM ([5]; Homo sapiens, IGR-37, 72 h, read-out: cell viability, IGR37 XP, 10μΜ): 65.4%
- viability at 1 µM (501Mel cells (parental); Homo sapiens, 72 h, read-out: cell viability, 501Mel Parental, 1μΜ): 101%
- viability at 10 µM (501Mel cells (parental); Homo sapiens, 72 h, read-out: cell viability, 501Mel Parental, 10μΜ): 82.6%
- viability at 1 µM ([6]; Homo sapiens, A-375, 72 h, read-out: cell viability, A375 XP, 1μΜ): 109%
- viability at 10 µM ([6]; Homo sapiens, A-375, 72 h, read-out: cell viability, A375 XP, 10μΜ): 79.9%

Structure (SMILES): O=C1NC(=O)C(c2ccccc2[N+](=O)[O-])=C1Nc1ccc(O)c(Cl)c1 [SB 415286]
- cell viability, 501Mel GP, 1μΜ ([1]; 501Mel GP, 1μΜ, 72 h, in %): 100.2
- cell viability, 501Mel GP, 10μΜ ([1]; 501Mel GP, 10μΜ, 72 h, in %): 76.0
- cell viability, A375 Parental, 1μΜ (A375 cells (parental); A375 Parental, 1μΜ, 72 h, in %): 99.8
- cell viability, A375 Parental, 10μΜ (A375 cells (parental); A375 Parental, 10μΜ, 72 h, in %): 78.1
- cell viability, IGR37 GP, 10μΜ ([2]; IGR37 GP, 10μΜ, 72 h): 93.7%
- cell viability, IGR37 GP, 1μΜ ([2]; IGR37 GP, 1μΜ, 72 h, in %): 94.9
- cell viability, IGR37 Parental, 1μΜ (IGR37 cells (parental); IGR37 Parental, 1μΜ, 72 h, in %): 102.6
- cell viability, A375 GP, 1μΜ ([3]; A375 GP, 1μΜ, 72 h, in %): 95.9
- cell viability, A375 GP, 10μΜ ([3]; A375 GP, 10μΜ, 72 h, in %): 86.4
- cell viability, 501Mel XP, 1μΜ ([4]; 501Mel XP, 1μΜ, 72 h, in %): 92.5
- cell viability, 501Mel XP, 10μΜ ([4]; 501Mel XP, 10μΜ, 72 h, in %): 76.3
- cell viability, IGR37 XP, 10μΜ ([5]; IGR37 XP, 10μΜ, 72 h): 85.4%
- cell viability, IGR37 XP, 1μΜ ([5]; IGR37 XP, 1μΜ, 72 h, in %): 98.9
- cell viability, 501Mel Parental, 1μΜ (501Mel cells (parental); 501Mel Parental, 1μΜ, 72 h, in %): 94.3
- cell viability, 501Mel Parental, 10μΜ (501Mel cells (parental); 501Mel Parental, 10μΜ, 72 h, in %): 76.0
- cell viability, A375 XP, 1μΜ ([6]; A375 XP, 1μΜ, 72 h, in %): 100.0
- cell viability, A375 XP, 10μΜ ([6]; A375 XP, 10μΜ, 72 h, in %): 92.8

Structure (SMILES): Cc1cccc(-c2[nH]c(C(C)(C)C)nc2-c2ccc3nccnc3c2)n1 [SB 525334]
- cell viability (kinase inhibitor library screening) ([1]; 501Mel GP, 1μΜ, in %): 110.1
- cell viability (kinase inhibitor library screening) ([1]; 501Mel GP, 10μΜ, in %): 89.8
- cell viability (kinase inhibitor library screening) (A375 cells (parental); A375 Parental, 1μΜ, in %): 112.1
- cell viability (kinase inhibitor library screening) (A375 cells (parental); A375 Parental, 10μΜ, in %): 110.1
- cell viability (kinase inhibitor library screening) ([2]; IGR37 GP, 1μΜ, in %): 99.0
- cell viability (kinase inhibitor library screening) ([2]; IGR37 GP, 10μΜ, in %): 73.8
- cell viability (kinase inhibitor library screening) (IGR37 cells (parental); IGR37 Parental, 1μΜ, in %): 104.1
- cell viability (kinase inhibitor library screening) (IGR37 cells (parental); IGR37 Parental, 10μΜ, in %): 104.6
- cell viability (kinase inhibitor library screening) ([3]; A375 GP, 1μΜ, in %): 114.6
- cell viability (kinase inhibitor library screening) ([3]; A375 GP, 10μΜ, in %): 93.3
- cell viability (kinase inhibitor library screening) ([4]; 501Mel XP, 1μΜ, in %): 100.5
- cell viability (kinase inhibitor library screening) ([4]; 501Mel XP, 10μΜ, in %): 78.5
- cell viability (kinase inhibitor library screening) ([5]; IGR37 XP, 1μΜ, in %): 91.6
- cell viability (kinase inhibitor library screening) ([5]; IGR37 XP, 10μΜ, in %): 60.0
- cell viability (kinase inhibitor library screening) (501Mel cells (parental); 501Mel Parental, 1μΜ, in %): 98.2
- cell viability (kinase inhibitor library screening) (501Mel cells (parental); 501Mel Parental, 10μΜ, in %): 90.3
- cell viability (kinase inhibitor library screening) ([6]; A375 XP, 1μΜ, in %): 109.3
- cell viability (kinase inhibitor library screening) ([6]; A375 XP, 10μΜ, in %): 103.4

Structure (SMILES): CC(C)(C)c1cnc(CSc2cnc(NC(=O)C3CCNCC3)s2)o1 [SNS-032 (BMS-387032)]
- cell viability (kinase inhibitor library screening) ([1]; 501Mel GP, 1μΜ, 72 h): 31.8%
- cell viability (kinase inhibitor library screening) ([1]; 501Mel GP, 10μΜ, 72 h): 0.161%
- cell viability (kinase inhibitor library screening) (A375 cells (parental); A375 Parental, 10μΜ, 72 h): 7.7%
- cell viability (kinase inhibitor library screening) (A375 cells (parental); A375 Parental, 1μΜ, 72 h): 13.7%
- cell viability (kinase inhibitor library screening) ([2]; IGR37 GP, 1μΜ, 72 h): 8.6%
- cell viability (kinase inhibitor library screening) ([2]; IGR37 GP, 10μΜ, 72 h): 2.7%
- cell viability (kinase inhibitor library screening) (IGR37 cells (parental); IGR37 Parental, 1μΜ, 72 h): 3.3%
- cell viability (kinase inhibitor library screening) (IGR37 cells (parental); IGR37 Parental, 10μΜ, 72 h): 0.754%
- cell viability (kinase inhibitor library screening) ([3]; A375 GP, 1μΜ, 72 h): 8.3%
- cell viability (kinase inhibitor library screening) ([3]; A375 GP, 10μΜ, 72 h): 3.6%
- cell viability (kinase inhibitor library screening) ([4]; 501Mel XP, 1μΜ, 72 h): 30.8%
- cell viability (kinase inhibitor library screening) ([4]; 501Mel XP, 10μΜ, 72 h): -0.0482%
- cell viability (kinase inhibitor library screening) ([5]; IGR37 XP, 1μΜ, 72 h): 2.8%
- cell viability (kinase inhibitor library screening) ([5]; IGR37 XP, 10μΜ, 72 h): 2.1%
- cell viability (kinase inhibitor library screening) (501Mel cells (parental); 501Mel Parental, 1μΜ, 72 h): 23.5%
- cell viability (kinase inhibitor library screening) (501Mel cells (parental); 501Mel Parental, 10μΜ, 72 h): 0.4%
- cell viability (kinase inhibitor library screening) ([6]; A375 XP, 1μΜ, 72 h): 14.3%
- cell viability (kinase inhibitor library screening) ([6]; A375 XP, 10μΜ, 72 h): 6.4%
